Data as given in patent US6197775A, “Phosphonate nucleotide derivatives” (Mitsubishi Chemical Corporation, priority 1995, dated 2001).
Where two headings read alike, the source gives them in different places.

Tests used:
Hepatitis B virus (HBV) = assay: Activity for inhibiting proliferation of Hepatitis B virus (HBV): inhibition of HBV-DNA synthesis in HB611 cells; format: cell-based; settings: read-out: Inhibitory ratio against HBV-DNA synthesis (%)
Protocol: Activity for inhibiting proliferation of Hepatitis B virus (HBV)
Inhibitory activity of the compounds of the present invention against proliferation of HBV was measured by a known method (K. Ueda, et al., VIROLOGY, 169, 213-216 (1989)).
(§1) 2×10^4 HB611 cells (recombinant human liver cancer cells producing HBV) were cultured in Dulbecco's ME medium containing 10% fetal bovine serum, streptomycin (100 μg/ml), penicillin (100 IU/ml), and Geneteicin (trade name of an antibiotic sold by Life Technologies, 0.2 mg/ml) at 37° C. The medium was changed with fresh medium on the second day and fifth day of the culture, and then changed with a medium containing a test compound at a final concentration of 10 μM or 1 μM on the 8th, 11th and 14th days of the culture. DNA of the cells were collected on the 17th day of the culture. Amounts of HBV-DNA in the cells were measured by Southern blotting method and inhibitory rates against HBV-DNA synthesis were determined. Concentrations of compounds required for 50% death of HB611 cells were determined by cell titer 96 (trademark of Promega Corp.). As references, the same test was carried out by using PMEA and its bis(pivaloyloxymethyl ester). Compound Nos. in Table 2 correspond to those in Table 1.

HBV = assay: Inhibitory effect on HBV proliferation in a serum of a rat orally administered with a test compound (HB611 cells cultured with 5% serum); format: cell-based, Hepatitis B virus; settings: 5% serum in medium
Protocol: Inhibitory effect on HBV proliferation in a serum of a rat orally administered with a test compound
A group consisting of three rats was orally administered with a test compound at a dose of 1 g/kg or 0.3 g/kg by a single oral administration. Blood of the rats was collected one hour after the administration and serum samples were prepared.
2×10^4 HB611 cells were cultured in Dulbecco's ME medium containing 10% fetal bovine serum, streptomycin (100 μg/ml), penicillin (100 IU/ml) and Geneteicin (0.2 mg/ml) at 37° C. The medium was changed with fresh medium on the second day and fifth day of the culture, and then changed with a medium containing 5% of the above serum (the serum of the rat orally administered with a test compound) on the 8th, 11th and 14th days of the culture. DNA of the cells were collected on the 17th day of the culture. Amounts of HBV-DNA in the cells were measured by Southern blotting method, and inhibitory ratios against […] synthesis in the cells were determined. As a reference, the same test was carried out by using PMEA. Compound Nos. in Table 3 correspond to those in Table 1.

[1] = Cytotoxicity for HB611 cells (cell titer 96); format: cell-based, human; settings: human; 50% death of HB611 cells; read-out: 50% Cytotoxic concentration for HB611 cells
Protocol: as §1

[2] = tested on: polychromatic erythrocytes (bone marrow); assay: Micronucleus test using mice; format: in vivo
Protocol: Micronucleus test using mice
A test compound was administered to mice at a dose of 1,000 or 2,000 mg/kg, and bone marrow smear preparations were prepared at 24, 30, 48, and 72 hours after the administration. For a negative control group (0.5% aqueous solution of tragacanth gum) and a positive control group (2 mg/kg of mitomycin C (MMC) was administered as a single intraperitoneal administration), bone marrow smears were prepared at 24 hours after the administration. The samples were stained by the Giemsa's staining method in an ordinary manner, and then 2,000 polychromatic erythrocytes per animal were examined to determine the number of cells having micronuclei and frequency of appearance of micronuclei (%). As statistic analysis, significant difference test was carried out for polychromatic erythrocytes containing micronuclei between the negative control group and the group administered with a test compound according to the stochastic method of Kasternbaum and Bowman.
For comparison, the same test was carried out by using an unsubstituted 6-amino derivative, i.e., 9-[2-[bis(2,2,2-trifluoroethyl)phosphonylmethoxy]ethyl]-2,6-diaminopurine (abbreviated as "DAP"), and PMEA bis(pivaloyloxymethyl ester). Compound Nos. in Table 4 correspond to those in Table 1.

[3] = tested on: herpes simplex viruses type-2 (HSV-2); settings: literature (Yokota et al.; Votruba et al.); cited from earlier work
[4] = tested on: human hepatitis B virus (HBV); settings: literature (Yokota et al.; Votruba et al.); cited from earlier work
[5] = tested on: herpes simplex viruses type-1 (HSV-1); settings: literature (Yokota et al.; Votruba et al.); cited from earlier work
[6] = tested on: human immunodeficiency virus (HIV); settings: literature (Yokota et al.; Votruba et al.); cited from earlier work
HB611 cells = assay: Cytotoxicity for HB611 cells (cell titer 96); format: cell-based, human; settings: 50% death of HB611 cells; read-out: 50% Cytotoxic concentration for HB611 cells
Protocol: as §1

[7] = 408 h, 1 μM, HB611 cells, DNA collected on 17th day
[8] = 408 h, 10 μM, HB611 cells, DNA collected on 17th day
[9] = serum of rats 1 h after single oral dose of 0.3 g/kg

Row | Compound | inhibition at 1 µM (Hepatitis B virus (HBV); [7]) | inhibition at 10 µM (Hepatitis B virus (HBV); [8]) | CC50 [1] | Test result (micronucleus test) ([2]; mouse, in vivo) | further results
1 | CN(C)c1nc(N)nc2c1ncn2CCOCP(=O)(OCC(F)(F)F)OCC(F)(F)F [Compound 11, 2-amino-9-[2-[bis(2,2,2-trifluoroethyl)phosphonylmethoxy]ethyl]-6-(dimethylamino)purine] | 92% | 100% | > 1000 µM | Negative | Inhibitory ratio against HBV-DNA synthesis (%) (HBV; [9]): 95.6%
2 | CCCN(C)c1nc(N)nc2c1ncn2CCOCP(=O)(OCC(F)(F)F)OCC(F)(F)F [Compound 13, 2-amino-9-[2-[bis(2,2,2-trifluoroethyl)phosphonylmethoxy]-ethyl]-6-(methyl-1-propylamino)purine] | – | 100% | > 1000 µM | Negative | Inhibitory ratio against HBV-DNA synthesis (%) (HBV; [9]): 100%
3 | CCCCN(C)c1nc(N)nc2c1ncn2CCOCP(=O)(OCC(F)(F)F)OCC(F)(F)F [Compound 15] | 86.7% | – | > 1000 µM | – | –
4 | CCN(CC)c1nc(N)nc2c1ncn2CCOCP(=O)(OCC(F)(F)F)OCC(F)(F)F [Compound 16, 2-amino-9-[2-[bis(2,2,2-trifluoroethyl)phosphonylmethoxy]-ethyl]-6-(diethylamino)purine] | – | 100% | > 1000 µM | – | –
5 | CN(C)c1nc(N)nc2c1nnn2CCOCP(=O)(OCC(F)(F)F)OCC(F)(F)F [Compound 21, 2-amino-8-aza-9-[2-[bis(2,2,2-trifluoroethyl)phosphonyl-methoxy]ethyl]-6-(dimethylamino)purine] | – | 100% | > 1000 µM | – | –
6 | CN(c1ccccc1)c1nc(N)nc2c1ncn2CCOCP(=O)(OCC(F)(F)F)OCC(F)(F)F [Compound 621, 2-amino-9-[2-[bis(2,2,2-trifluoroethyl)phosphonyl-methoxy]ethyl]-6-(methylphenylamino)purine] | 68% | – | > 1000 µM | – | –
7 | Nc1nc(N)c2ncn(CCOCP(=O)(OCC(F)(F)F)OCC(F)(F)F)c2n1 [DAP, 9-[2-[bis(2,2,2-trifluoroethyl)phosphonylmethoxy]ethyl]-2,6-diaminopurine, reference compound] | – | – | – | Positive | –
8 | Nc1nc(N)c2ncn(CCOCP(=O)(O)O)c2n1 [PMDAP, 9-(2-phosphonylmethoxy)ethyl-2,6-diaminopurine] | – | – | – | – | effectiveness against HSV-2 [3]: effective; effectiveness against HBV [4]: effective; effectiveness against HSV-1 [5]: effective; effectiveness against HIV [6]: effective
9 | CC(C)(C)C(=O)OCOP(=O)(COCCn1cnc2c(N)ncnc21)OCOC(=O)C(C)(C)C [PMEA ester, PMEA bis(pivaloyloxymethyl ester), reference compound] | – | – | – | – | inhibition at 1 µM (Hepatitis B virus (HBV); HB611, 408 h): 63.7%; inhibition at 10 µM (Hepatitis B virus (HBV); HB611, 408 h): 90%; CC50 (HB611 cells): 18 µM; Test result (micronucleus test) ([2]; mice, 1,000 or 2,000 mg/kg, bone marrow at 24, 30, 48, and 72 hours): Positive
10 | Nc1ncnc2c1ncn2CCOCP(=O)(O)O [PMEA, 9-(2-phosphonylmethoxy)ethyladenine] | – | – | – | – | effectiveness against HSV-2 [3]: effective; inhibition at 10 µM (Hepatitis B virus (HBV); HB611, 408 h): 83%; Inhibitory ratio against HBV-DNA synthesis (%) (HBV; serum of rats 1 h after single oral dose of 1 g/kg): 35.5%; effectiveness against HBV [4]: effective; effectiveness against HSV-1 [5]: effective; effectiveness against HIV [6]: effective
